Source: patent US20140271649A1, “METHODS AND COMPOSITIONS FOR INHIBITING STAPHYLOCOCCUS AGGLUTINATION IN BLOOD” (The University of Chicago, priority 2011, published 2014)

Key:
[1] = system: Coa-prothrombin; conditions: literature (Hijikata-Okunomiya and Kataoka, 2003; Vanassche et al., 2010); cited from earlier work
[2] = biological target: human alpha-thrombin (Homo sapiens, UniProt P00734); experiment: Coagulase activity control: fibrinogen to fibrin conversion by thrombin; assay type: biochemical; conditions: 200 ng argatroban, absorbance at 450 nm, compared to mock control
Description: (§1) Coagulase activity. Purified recombinant Coa or vWbp (100 nM) were mixed with human prothrombin (Innovative Research) in 1% sodium-citrate/PBS. After an initial reading, fibrinogen (3 μM) (Sigma) was added and conversion of fibrinogen to fibrin was measured as an increase in turbidity at 450 nm in a plate reader (BioTek) at 2.5 min intervals. As controls, the enzymatic activity of human alpha-thrombin (Innovative Research) or prothombin alone were measured. Argatroban (200 ng, Novaplus) was added to reactions prior to the addition of fibrinogen.

[3] = system: S. aureus N315; experiment: Agglutination assay in plasma, MRSA N315; assay type: cell-based, Staphylococcus aureus; conditions: argatroban (1 mg/mL), OD550 after two hours
[4] = system: Coa-prothrombin; experiment: Coagulase activity: fibrinogen to fibrin conversion by Coa-prothrombin; assay type: biochemical, S. aureus / human; conditions: 200 ng argatroban, absorbance at 450 nm
Description: as §1

[5] = biological target: T1, vWbp-prothrombin (Homo sapiens, UniProt P00734); experiment: Coagulase activity: fibrinogen to fibrin conversion by vWbp-prothrombin; assay type: biochemical, S. aureus / human; conditions: 200 ng argatroban, absorbance at 450 nm
T1 construct: purchased Innovative Research (prothrombin); host or cells: vWbp made in house in E. coli BL21(DE3), Ni-NTA purified
Description: as §1

[6] = system: S. aureus Newman; experiment: Agglutination assay in plasma, S. aureus Newman; assay type: cell-based, Staphylococcus aureus; conditions: argatroban treatment, increasing concentrations
Description: Agglutination assay. Overnight cultures of staphylococcal strains were washed in 1 mL 0.85% NaCl and suspended to a final concentration of OD600 4.0 in 1 mL. Bacteria were incubated with 1:500 Syto9 (Invitrogen) for 15 minutes, washed with 1 mL 0.85% NaCl, and suspended in 1 mL saline. Bacteria were mixed 1:1 with EDTA-chelated rabbit plasma (Becton, Dickinson) on a glass microscope slide and incubated for 15 minutes. Samples were viewed and images captured on an Olympus Provis microscope using a 40× objective. For quantification of agglutination, plasma and bacteria were inoculated onto polystyrene C-Chip disposable hemocytometer slides (IN-CYTO). […] For analysis, the largest aggregate in each field of view was outlined in ImageJ and the area of that aggregate measured. Mean area of S. aureus aggregates were determined and normalized by subtracting Newman in saline without plasma from all values. Percent agglutination was calculated by normalizing all mean intensity values to S. aureus Newman in plasma. […] Fold change in agglutination was calculated as the ratio of mean bacterial aggregation area in the presence of antibody compared to control. Statistical significance, P<0.05, was determined by one way analysis of variance (ANOVA), with Dunnett's multiple comparison analysis for post-hoc testing using GraphPad Prism software. […]

[7] = system: S. aureus MW2; experiment: Agglutination assay in plasma, MRSA MW2; assay type: cell-based, Staphylococcus aureus; conditions: argatroban (1 mg/mL), OD550 after two hours
[8] = system: S. aureus Newman; experiment: Mouse sepsis survival, S. aureus Newman challenge; assay type: in vivo, BALB/c mice; conditions: 10 mg/kg i.p. in 12 hour intervals, mock treated died within 60 hours
[9] = system: S. aureus coa/vwb mutant; experiment: Mouse sepsis survival, S. aureus coa/vwb mutant challenge; assay type: in vivo, BALB/c mice; conditions: 10 mg/kg i.p. every 12 h, vs mock
Description: (§2) Sepsis. Overnight cultures of staphylococcal strains were diluted 1:100 into fresh TSB and grown until they reached an OD600 of 0.4. Bacteria were centrifuged at 7,000×g, washed, and suspended in the one-tenth volume of PBS. Six week-old female BALB/c mice (n=15) (Charles River) were injected retro-orbitally with 1×10^8 CFU (S. aureus Newman, MW2, and N315) or 5×10^7 CFU (S. aureus USA300) suspensions in 100 μl of PBS. Mice were monitored for survival over 10 days. To enumerate staphylococcal load in heart tissue twelve hours post-infection, mice were euthanized by CO2 asphyxyation and hearts were removed during necropsy. Heart tissue was homogenized in PBS, 0.1% Triton X-100. Serial dilutions of homogenate were spread on TSA and incubated for colony formation. The bacterial load in organ tissue was analyzed in pairwise comparisons between wild-type and mutant strains with the unpaired two-tailed Student's t-test. For histopathology, mice infected with S. aureus were euthanized 12 hours after infection. Hearts were removed during necropsy and fixed in 10% formalin for 24 hours at room temperature. […] Data were analyzed in pairwise comparisons between wild-type and mutant strains with the unpaired two-tailed Student's t-test. […]
(§3) Dabigatran etexilate treatment. […] Thrombin time was measured on a STA-R analyzer (Diagnostica Stago).

[10] = system: S. aureus Newman; experiment: Heart tissue histopathology 12 hours after S. aureus Newman infection; assay type: in vivo, BALB/c mice
[11] = system: S. aureus USA300 LAC; experiment: Mouse sepsis survival, S. aureus USA300 LAC challenge; assay type: in vivo, BALB/c mice; conditions: 10 mg/kg i.p. every 12 h; lethal dose S. aureus USA300 LAC; vs mock
Description: as §2, §3

[12] = system: clfA (pclfA) variant; experiment: Mouse sepsis survival, clfA (pclfA) variant challenge; assay type: in vivo, BALB/c mice
Description: as §2, §3

[13] = system: clfA mutant S. aureus; experiment: Mouse sepsis survival, clfA mutant challenge; assay type: in vivo, BALB/c mice
Description: as §2, §3

[14] = system: S. aureus N315; experiment: Mouse sepsis survival, MRSA N315 challenge; assay type: in vivo, BALB/c mice; conditions: lethal challenge S. aureus N315; Dbg 10 mg/kg, antibodies 5 mg/kg
[15] = system: S. aureus MW2; experiment: Mouse sepsis survival, MRSA MW2 challenge; assay type: in vivo, BALB/c mice; conditions: lethal challenge S. aureus MW2; Dbg 10 mg/kg, antibodies 5 mg/kg
[16] = in vivo, sc; cited from earlier work
[17] = Serum IgG after active immunization (ELISA); assay type: in vivo, BALB/c mice; conditions: 50 μg protein in CFA, boost in IFA

## CC1CNc2c(cccc2S(=O)(=O)N[C@@H](CCCNC(=N)N)C(=O)N2CC[C@@H](C)C[C@@H]2C(=O)O)C1 (some centres unmarked) [argatroban]
[1]
  inhibition of the proteolytically active Coa-prothrombin complex: inhibit
[2]
  conversion of fibrinogen to fibrin by thrombin: blocked
[3]
  agglutination of S. aureus N315 in EDTA-plasma: inhibited
[4]
  conversion of fibrinogen to fibrin by Coa-prothrombin: blocked
[5]
  conversion of fibrinogen to fibrin by vWb-prothrombin: blocked
[6]
  agglutination of S. aureus Newman in plasma: interfered with the agglutination
[7]
  agglutination of S. aureus MW2 in EDTA-plasma: inhibited

## CCCCCCOC(=O)N=C(N)c1ccc(NCc2nc3cc(C(=O)N(CCC(=O)OCC)c4ccccn4)ccc3n2C)cc1 [dabigatran-etexilate]
[8]
  survival after challenge: up to 132 hours
[9]
  survival or time-to-death: no effect
[10]; dabigatran-etexilate treatment, S. aureus Newman, 12 hours, histopathology
  agglutination of staphylococcus in heart tissue: reduced agglutination
[11]
  survival of septic mice: prolonged the survival
[12]
  benefit from treatment (time-to-death): benefited
[13]; clfA mutant challenge compared to control strain harboring pclfA
  survival and time-to-death: increased the survival and time-to-death
[13]; clfA mutant challenge compared to mock treated mice
  disease outcome: further improved the disease outcome

## [H]/N=C(/N)c1ccc(NCc2nc3cc(C(=O)N(CCC(=O)O)c4ccccn4)ccc3n2C)cc1 [dabigatran]
[1]
  inhibition of the proteolytically active Coa-prothrombin complex: inhibit
[14]
  time-to-death / survival during sepsis: did not prolong the survival
[15]
  time-to-death / survival during sepsis: did not prolong the survival

## N=C(N)c1ccc(CNC(=O)[C@@H]2CCN2C(=O)[C@H](NCC(=O)O)C2CCCCC2)cc1 [melagatran]
[16]
  dose at which toxicity began: over 5 mg

## ClfA: purified recombinant S. aureus clumping factor A; used in binding assay and as antigen for active immunization
[17]
  specific IgG antibodies after active immunization: raised specific IgG antibodies
[10]; active immunization, challenged twelve hours with wild-type S. aureus Newman
  frequency of heart lesions: reduced the frequency of heart lesions
